Source: patent publication US10364227B2, “Therapeutic compounds” (ARIZONA BOARD OF REGENTS ON BEHALF OF ARIZONA STATE …, priority 2015, dated 2019)

How the values were obtained:
[1] = calculated value, James et al. (2005) J Biol. Chem. 280, 21295; cited from earlier work
[2] = Bioavailability in a mouse model (blood level after oral gavage); format: in vivo; settings: whole blood, 100 mg/kg oral gavage in olive oil, blood sample 6 h after gavage, quantified by HPLC
Description: Bioavailability is an important characteristic of many therapeutic agents. Accordingly, certain compounds disclosed herein were tested for bioavailability in a mouse model.
The test compound was prepared on the day of dose administration by dissolving the appropriate amount of test article in olive oil to reach the proper concentrations.
The dose of 100 mg/kg body weight (total volume of administration was <120 μL) was used for testing. For example, a mouse whose body weight is 20 g would need 2 mg of test article in oral gavage. Mice were food deprived overnight. On the experimental day, mice were weighed to obtain dosage information before oral gavage was performed. Blood and brain samples were collected at the desired post-dose time points after oral gavage. Brain samples were perfused to exclude blood as a factor in the analysis of bioavailability.

Structure (SMILES) | melting point [°C] | other results
CCCCCCCCCCCCCCCCc1nc(N2CCC2)nc(OC)c1O [Compound 8, 2-(Azetidin-1-yl)-4-methoxy-6-hexadecylpyrimidin-5-ol] | 59 to 60 | 
COC1=C(OC)C(=O)C(C/C=C(\C)CC/C=C(\C)CC/C=C(\C)CC/C=C(\C)CC/C=C(\C)CC/C=C(\C)CC/C=C(\C)CC/C=C(\C)CC/C=C(\C)CCC=C(C)C)=C(C)C1=O [coenzyme Q10] |  | calculated octanol-water partition coefficient [1]: > 10^20
CCCCCCCCCCCCCCCCc1nc(N2CCC2)nc(OCC)c1O [Compound 9, 2-(Azetidin-1-yl)-4-ethoxy-6-hexadecylpyrimidin-5-ol] | 79 to 80 | 
CCCCCCCCCCCCCCCCc1nc(N2CCCC2)nc(OC2CCC2)c1O [Compound 14, 4-Cyclobutoxy-2-(pyrrolidin-1-yl)-6-hexadecylpyrimidin-5-ol] | 74 to 76 | 
[2H]C([2H])([2H])N(c1nc(CCCCCCCCCCCCCCCC)c(O)c(OC2CCC2)n1)C([2H])([2H])[2H] [Compound 13, 4-Cyclobutoxy-2-(N,N-dimethylamino)-6-hexadecylpyrimidin-5-ol-d6] | 72 to 73 | 
CCCCCCCCCCCCCCCCc1nc(N2CCC2)nc(OC2CCC2)c1O [Compound 12, 2-(Azetidin-1-yl)-4-cyclobutanoxy-6-hexadecylpyrimidin-5-ol] |  | concentration at 6 h [2]: ~4 µM
CCCCCCCCCCCCCCCOc1nc(N2CCC2)nc(C)c1O [Compound 11, 2-(Azetidin-1-yl)-4-methyl-6-(pentadecyloxy)pyrimidin-5-ol] | 83 to 85 | 
CCCCCCCCCCCCCCCCc1nc(N2CCCCC2)nc(OC2CCC2)c1O [Compound 15, 4-Cyclobutoxy-2-(piperidin-1-yl)-6-hexadecylpyrimidin-5-ol] | 78 to 79 | 
[2H]C(CCCCCCCCCCCCCCC)c1nc(N(C([2H])([2H])[2H])C([2H])([2H])[2H])nc(OC([2H])([2H])[2H])c1O (stereo not drawn) [Compound 2, 2-(N,N-dimethylamino-d6)-4-(1-hexadecyl-d1)-6-(methoxy-d3)-pyrimidin-5-ol] | 75 to 76 | 
